Two compounds from patent publication US12201632B2, “Levoketoconazole for treatment of congenital adrenal hyperplasia and primary aldosteronism” (Strongbridge Dublin Limited, priority 2018, dated 2025) can be followed below.

For orientation: IC50 means the midpoint of a concentration-inhibition curve.

One assay has as its system AtT20 cells. Description: Cell number of corticotroph pituitary AtT20 cells. In kind it is cell-based, mouse. The note with it: for IC50: AtT20, after 7 days, read-out: IC50 inhibition of cell number. Here is the method: Human adrenocortical carcinoma HAC15 and mouse corticotroph AtT20 cells were used, purchased as a kind gift by Dr. W. Rainey, and obtained from Dr. J. Tooze (European Organization for Molecular Biology), respectively. Both cell lines were cultured in 75 cm^2 flasks at 37° C. in a humidified incubator (Greiner Bio-One, Alphen a/d Rijn, the Netherlands) at 5% CO2. Dulbecco's Modified Eagle Medium F12 containing 5% fetal calf serum was used for HAC15, whereas AtT20 cells were cultured in Dulbecco's minimal essential medium (DMEM) supplemented with 10% fetal calf serum. Both mediums were supplemented with L-glutamine (2 mmol/L) and penicillin (10^5 U/L). Short tandem repeat (str) profiling using a Powerplex Kit (Promega, Leiden, the Netherlands) of HAC15 and AtT20 gave results consistent with the ATCC database, confirming the identity of both cell lines. Medium and supplements were obtained from Invitrogen, Breda, the Netherlands. Once a week, cells were harvested with trypsin (0.05%)-EDTA (0.53 mM) and resuspended in culture medium. Levoketoconazole (COR-003) and racemic ketoconazole (both from Cortendo AB) were dissolved in absolute ethanol (EtOH), according to manufacturer's instructions, and stored at −20° C. at a stock concentration of 10^−2 μM. At the start of each experiment, both drugs were freshly prepared and diluted in EtOH in the correct concentrations. Synacten (synthetic ACTH, Novartis Pharma A.G.) stock concentration was stored at 4° C. and dissolved in culture medium at the day of use. The final concentrations of ACTH were chosen based on a dose-response curve in HAC15 cells and previously reported studies in the literature. For HAC15, 200,000 and 100,000 cells were plated in 0.5 ml medium in 24 well plates for experiments of 1 and 3 days, respectively. For AtT20, cell amounts were 100,000 and 30,000. One day after seeding the HAC15 cells, the medium was refreshed and cells were treated 1 or 3 days in quadruplicate with levoketoconazole or racemic ketoconazole (0.05-5 μM), with or without 10 nM ACTH. To study effects of both compounds on pituitary AtT20 cells, concentrations of 0.1 to 10 μM of both drugs were used. Controls were vehicle treated. […] All cell culture experiments were carried out at least twice.
(§1) As a measure of cell number, DNA concentrations were determined using the bisbenzimide fluorescent dye (Hoechst 33258, Sigma Aldrich), as previously described.
(§2) Statistical analysis was performed using Graphpad Prism 6.0 (Graphpad Software, San Diego, CA). Non-linear regression curve fitting program was used to calculate the half maximal inhibitory concentrations (IC50) on cortisol production. Effects of both compounds on the steroid profile were measured as absolute change compared to control and compared using the Student's t-test. When assessing differences between effects of both compounds, the percentage change was evaluated and compared in order to correct for differences in the vehicle treated control cells. Values of P<0.05 were considered statistically significant and data are presented as mean SEM.

Assay [1] has as its system primary human adrenocortical carcinoma cultures. Briefly: Cortisol production in primary adrenocortical carcinoma cultures. In kind it is cell-based. Here is the method: (§3) To obtain primary cultures, adrenal specimens (adrenocortical adenomas, adrenal hyperplasias and adrenocortical carcinomas) were collected after adrenalectomy at the department of Surgery, Erasmus University Medical Center, Rotterdam, the Netherlands, between April 2016 and May 2018. The study was conducted under guidelines that have been approved by the Medical Ethics Committee of the Erasmus Medical Center and informed consent was obtained from all patients. Immediately after surgery, specimens were minced into small pieces of 2-3 mm^3, washed in culture medium and centrifuged for 5 minutes at 600 g. The tissue was stored overnight in culture medium at 4° C., where after the tissue was centrifuged again and the supernatant was removed. Fragments were dissociated using 10-25 ml collagenase type 1 (2 mg/ml: Sigma-Aldrich), followed by incubation at 37° C. for up to two hours. Ficoll (GE healthcare) density gradient separation was used once or twice as required in order to separate contaminating red blood cells from the tumor cells. Cell viability and cell amount were counted by trypan blue exclusion. Dissociated cells were plated at a density of 10^5 cells per well. ACTH-secreting corticotroph pituitary adenoma tissue from patients with Cushing's disease (n=2) was available after transsphenoidal surgery. Single-cell suspensions of the pituitary adenoma tissues were prepared as previously described in detail.
Owing to a limited number of cells obtained from the specimens, not all experiments were carried out in every primary culture.
Cortisol concentrations were measured in the supernatant using a chemiluminescence immunoassay system (Immulite 2000XPi; Siemens DPC Inc., Los Angeles, Calif., USA). In addition, we carried out multi-steroid analysis by liquid chromatography/mass spectrometry (LC/MS-MS) to accurately quantify androstenedione, corticosterone, cortisol, 11-deoxycortisol, DHEA, DHEAS, progesterone, 17-hydroxyprogesterone, and testosterone. Concentrations that were tested on the LC/MS-MS were closest to 50% inhibition or maximal inhibition of cortisol as determined by the immunoassay. Steroids were quantified with respect to a calibration series, with internal standards. Steroids were quantified on a Xevo TQS LC-MS/MS (Waters Chromatography).
as §2

Assay [2] concerns primary human corticotroph pituitary adenoma cultures. Briefly: ACTH secretion corrected for cell number in primary corticotroph pituitary adenoma cultures. Type of assay: cell-based. The note with it: both primary pituitary adenoma cultures, 1 μM, 7 days. Here is the method: as §3, with “Ficoll (GE healthcare) density gradient separation was used once or twice as required in order to separate contaminating red blood cells from the tumor cells.” left out, “Dissociated cells were plated at a density of 10^5 cells per well. ACTH-secreting corticotroph pituitary adenoma tissue from patients with Cushing's disease (n=2) was available after transsphenoidal surgery. Single-cell suspensions of the pituitary adenoma tissues were prepared as previously described in detail.” left out
At the end of the AtT20 and primary pituitary adenoma culture experiments, medium was collected and supplemented with 1% of the protease inhibitor Trasylol to prevent degradation of ACTH. ACTH was measured using a commercially available, nonisotopic automatic chemiluminescence system (DPC Immulite).

Assay [3] shares this test system. Description: Cell amount in primary corticotroph pituitary adenoma cultures. As to conditions: corticotroph pituitary adenoma primary culture no. 2, 1 μM, 7 days. In kind it is cell-based. Here is the method: as §3, with “ACTH-secreting corticotroph pituitary adenoma tissue from patients with Cushing's disease (n=2) was available after transsphenoidal surgery. Single-cell suspensions of the pituitary adenoma tissues were prepared as previously described in detail.” left out
as §1

[4] abbreviates: AtT20, after 3 and 7 days of treatment.

SMILES strings stand for the structures. Where two headings read alike, the source gives them in different places.

As for `CC(=O)N1CCN(c2ccc(OCC3COC(Cn4ccnc4)(c4ccc(Cl)cc4Cl)O3)cc2)CC1` (racemic) [racemic ketoconazole, Ketoconazole], the “effect on cell number” value was “inhibited cell number” with AtT20 cells (setting [4]); “no effect” with AtT20 cells (AtT20, after 24 h of treatment); “not observed” in assay [3]. For the same compound, the IC50 stood at 5810 nM in the assay with AtT20 cells (Mus musculus, 168 h); 76.3 nM in assay [1] (Homo sapiens, 72 h, ACC no. 2, basal condition, 3 days, read-out: IC50 inhibition of cortisol production); 67.6 nM in assay [1] (Homo sapiens, 72 h, ACC no. 3, basal condition, 3 days, read-out: IC50 inhibition of cortisol production). For the same compound, the “effects on ACTH secretion corrected for cell number” value in assay [2] is “No effects”.

With `CC(=O)N1CCN(c2ccc(OC[C@@H]3CO[C@@](Cn4ccnc4)(c4ccc(Cl)cc4Cl)O3)cc2)CC1` (relative stereo) [levoketoconazole, 2S,4R cis-1-acetyl-4-[4-[[2-(2,4-dichlorophenyl)-2-(1H-imidazol-1-ylmethyl)-1,3-dioxolan-4-yl]methoxyl]phenyl]piperazine], the “effect on cell number” value is given as “inhibited cell number” with AtT20 cells (setting [4]); “no effect” with AtT20 cells (AtT20, after 24 h of treatment); “significantly inhibited cell number” in assay [3]. Besides, the IC50 came to 1050 nM in the assay with AtT20 cells; 5.78 nM in assay [1] (ACC no. 1, basal condition, 3 days, read-out: IC50 inhibition of cortisol production); 57.1 nM in assay [1] (ACC no. 2, basal condition, 3 days, read-out: IC50 inhibition of cortisol production); 32.1 nM in assay [1] (ACC no. 3, ACTH (85 μM) stimulated condition, 3 days, read-out: IC50 inhibition of cortisol production); 73.1 nM in assay [1] (ACC no. 3, basal condition, 3 days, read-out: IC50 inhibition of cortisol production); 38.3 nM in assay [1] (basal condition, ACC (n=3), read-out: mean IC50 cortisol production). Besides, in assay [2], the “effects on ACTH secretion corrected for cell number” value is “No effects”.
